The values below come from publication PMC5317004 (Scientific Reports, 2017).

The structures appear in SMILES notation.

One test relates to chimeric α7-GluClβR. As to the kind of experiment: IVM pre-application before ACh, inhibition of ACh-elicited currents (whole-cell patch clamp). The format is cell-based, chick nAChR α7 / C. elegans GluClβ. On the procedure:
Data were extracted from experiments performed as in panel A. Since the currents could not be recovered following an exposure to IVM, each cell was exposed only to one concentration of IVM. […] The curve was fitted to the averaged data points with a non-linear regression using the Hill equation 2 (Eq. 2; r^2 = 0.996). Error bars correspond to SEM. Total of 41 cells were used to obtain the averaged points. Recordings were performed at −60 mV.
Since the ACh-evoked response could not be recovered after exposure of the cell to IVM, we had to perform the above application protocol in different cells for each IVM concentration separately. By that, we obtained the inhibition graph shown in the inset of Fig. 3.
In the case of inhibition of the current response, curves were fitted to the data points by a nonlinear regression using the Hill equation 2, […]
Supplementary Information […]
(§1) Supplementary Materials and Methods […]
DNA construct and preparation of cells for electrophysiological experiments The cDNA encoding the α7-GluClβ chimeric subunit was generated as described previously3, and was cloned into a pcDNA3.1 vector.
Chinese hamster ovary cells (CHO-K1, ATCC via Biological Industries Israel, Beit Haemek Ltd.) were cultured as performed previously2 in Dulbecco 's Modified E agle Med iu m (DMEM) containing 10% fetal calf serum (Biological Industries Israel Beit Haemek Ltd.), 2 mM glutamax, 100 Units/ml penicillin G and 100 μg/ml streptomycin, and grown in 5% CO2 at 37°C under 90-95% hu midity . CHO cells were seeded on glass coverslips (13-mm diameter) placed in a 24-multiwell plate. For the expression of the α7-GluClβR, cells were transiently transfected with the pcDNA3.1 plasmid containing the receptor’s ORF (200-600 ng per well) using transit-LT1 transfection reagent (Mirus, USA), according to the manufacturer’s protocol. pIRES-CD8 plas mid (200 ng per well) was also added to enable visualization of the ex pressing cells by beads coated with anti-CD8 antibodies (Invitrogen). […]
Reagent (Roche Life Science). Recordings were performed 48-72 hours following transfection.
Whole-cell patch clamp recordings
Recordings were performed in the aforementioned CHO cells, as previously described1,2. Whole-cell patch clamp experiments were performed with normal external solution (NES) contained (in millimolar): 140 NaCl, 2.8 KCl, 2 CaCl2, 2 MgCl2, 10 glucose and 10 HEPES, adjusted to pH 7.35 with NaOH (310 mOsM). The pipette solution contained […]
(in millimolar): 130 KCl, 4 MgCl2, 4 Na2ATP, 1 EGTA and 10 HEPES, adjusted to pH 7.35 with KOH (290 mOsM). The osmolarity of these solutions was maintained by adding sucrose.
The electrode resistance was 6-10 MΩ when filled with the pipette solution. External solutions were applied onto the cell by using the VC-77SP fast-step system (Warner Instruments, CT, USA) combined with N2 pressure of 3-4 psi to produce laminar flow of the external solution onto the patched cell. All measurements were performed at 25 °C. The currents w ere measured with an Axopatch 200B patch-clamp amplifier (Molecular Devices, Sunnyvale, CA) and a Digidata 1440A interface (Molecular Devices). Acquisition of recording data was performed at 2.5 kHz and recordings were low-pass filtered at 1 kHz, through a four-pole Bessel filter.
The pClamp 10 software (Molecular Devices) was used for data acquisition.
To determine the chloride conductance and the reversal potential during current decline, the following procedure was employed. […]
A general note: In patch-clamp work, channel activity is measured electrically.

In a further test the test system is T1, homomeric GluClβR.
T1 construct: homomeric receptors assembled from the full-length C. elegans GluClβ subunit; expressed in transfected cells; host or cells: CHO-K1 cells, transient transfection, pcDNA3.1
As to the kind of experiment: Effect of IVM on Glu-elicited currents of homomeric GluClβ receptors in CHO cells (whole-cell patch clamp). The format is cell-based, C. elegans. The following applies: pre-application of 2 μM IVM for 10 seconds, 100 mM Glu, +60 mV, four cells. How it is done: Figure 9 Effect of IVM on homomeric GluClβ receptors. (A) Representative current traces obtained by the indicated application protocol. Glu (100 mM) was applied for either 350 ms to obtain peak IP0 at −60 mV, or 600 ms to obtain peaks IP1, IP2 and IP3 at +60 mV. Note that the responses at both membrane voltages, −60 and +60 mV, start to desensitize appreciably before the end of Glu application. IVM (2 μM) was applied for 10 seconds. Asterisk indicates a 25-sec-long wash between the second and third Glu applications. (B) Current-voltage (I/V) relations obtained in a different cell than in A upon the application of Glu (100 mM) over a voltage ramp lasting 200 ms. […] Current ratios were extracted from experiments performed as shown in (A). Mean ± SEM of four cells are presented. Paired, two-tailed Student’s t-tests indicate that **0.001 < P < 0.01 and ***P < 0.0002.
Supplementary Information
Trapping of ivermectin by a pentameric ligand-gated ion channel upon open-to-cl ose d i someri zati on N. Degani-Katzav, M. Klein, M. Har-Even, R. Gortler, R. Tobi and Y. Paas*
as §1
The electrode resistance was 6-10 MΩ when filled with the pipette solution. […] The currents w ere measured with an Axopatch 200B patch-clamp amplifier (Molecular Devices, Sunnyvale, CA) and a Digidata 1440A interface (Molecular Devices). […]

What is called IC50 is the concentration that inhibits the measured activity by half. Broadly, the Ki is the dissociation constant of the complex between target and ligand, obtained from inhibition or displacement. Turning to `CC[C@H](C)[C@H]1O[C@]2(CC[C@@H]1C)C[C@@H]1C[C@@H](C/C=C(\C)[C@@H](O[C@H]3C[C@H](OC)[C@@H](O[C@H]4C[C@H](OC)[C@@H](O)[C@H](C)O4)[C@H](C)O3)[C@@H](C)/C=C/C=C3\CO[C@@H]4[C@H](O)C(C)=C[C@@H](C(=O)O1)[C@]34O)O2` [IVM, Ivermectin], in the test on chimeric α7-GluClβR (5 μM IVM for 10 sec, then 50 μM ACh 0.5 sec, relative to response after DMSO pre-application, N = 8), the “ACh-elicited response after IVM pre-application, percent IP3/IP2” value turned out to be 16 ± 5.2%. The “ACh-elicited response after IVM and long-term wash, percent IP4/IP2” value in the test on chimeric α7-GluClβR (5 μM IVM for 10 sec, wash > 2 min, 50 μM ACh, N = 5) stood at 4.4 ± 1.3%. In addition, in the test with chimeric α7-GluClβR (IVM applied prior to 50 μM ACh), the “Hill coefficient (IVM inhibition curve)” value was ~3. Besides, in the test on chimeric α7-GluClβR (IVM applied prior to 50 μM ACh, −60 mV, 41 cells), the IC50 is 156 nM. For the same compound, in the test with chimeric α7-GluClβR (IVM applied prior to activation by ACh, IC50 taken as Ki for non-competitive inhibition, read-out: inhibition constant (Ki)), the Ki was found to be 156 nM. The “Glu response remaining after IVM pre-application (IP2/IP1 ratio)” value in the test on homomeric GluClβR is recorded as ~67%.
